Tests used:
TEK = TEK (Homo sapiens, UniProt Q02763); design: Invitrogen kinase panel, per cent inhibition of kinase activity; settings: 10 µM, inhibitor
Procedure: (§1) To discover a potent and selective BDK inhibitor, a subset of the Pfizer compound collection was screened. […] Off target activity was assessed in both CEREP and kinase panels (Supplementary Tables 2, 3).

PIK3C2B = PIK3C2B (Homo sapiens, UniProt O00750); design: Invitrogen kinase panel, per cent inhibition of kinase activity; settings: inhibitor
Procedure: as §1

MET = MET (Homo sapiens, UniProt P08581); design: Invitrogen kinase panel, per cent inhibition of kinase activity; settings: 10 µM, inhibitor
Procedure: as §1

CHEK2 = CHEK2 (Homo sapiens, UniProt O96017); design: Invitrogen kinase panel, per cent inhibition of kinase activity; settings: 10 µM, inhibitor
Procedure: as §1

IRAK4 = target: T1, IRAK4 (Homo sapiens, UniProt Q9NWZ3); design: Invitrogen kinase panel, per cent inhibition of kinase activity; settings: 10 µM, inhibitor
T1 sequence (Q9NWZ3 1-460): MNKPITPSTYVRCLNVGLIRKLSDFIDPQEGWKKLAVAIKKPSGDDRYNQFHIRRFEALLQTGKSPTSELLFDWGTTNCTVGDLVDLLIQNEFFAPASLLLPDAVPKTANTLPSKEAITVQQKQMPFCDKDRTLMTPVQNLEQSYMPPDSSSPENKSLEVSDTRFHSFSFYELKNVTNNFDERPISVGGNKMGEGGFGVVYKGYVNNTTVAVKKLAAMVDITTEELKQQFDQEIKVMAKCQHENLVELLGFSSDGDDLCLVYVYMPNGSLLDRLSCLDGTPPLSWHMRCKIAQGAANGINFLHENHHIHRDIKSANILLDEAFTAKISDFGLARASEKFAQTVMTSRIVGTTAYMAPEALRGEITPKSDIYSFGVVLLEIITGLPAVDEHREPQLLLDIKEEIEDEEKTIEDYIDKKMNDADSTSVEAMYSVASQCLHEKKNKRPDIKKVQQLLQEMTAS
Procedure: as §1

CSK tyrosine Kinase = CSK tyrosine Kinase (Homo sapiens, UniProt P41240); design: Invitrogen kinase panel, per cent inhibition of kinase activity; settings: 10 µM, inhibitor
Procedure: as §1

TAOK2 = target: T2, TAOK2 (Homo sapiens, UniProt Q9UL54); design: Invitrogen kinase panel, per cent inhibition of kinase activity; settings: 10 µM, inhibitor
T2 sequence (Q9UL54 1-1235): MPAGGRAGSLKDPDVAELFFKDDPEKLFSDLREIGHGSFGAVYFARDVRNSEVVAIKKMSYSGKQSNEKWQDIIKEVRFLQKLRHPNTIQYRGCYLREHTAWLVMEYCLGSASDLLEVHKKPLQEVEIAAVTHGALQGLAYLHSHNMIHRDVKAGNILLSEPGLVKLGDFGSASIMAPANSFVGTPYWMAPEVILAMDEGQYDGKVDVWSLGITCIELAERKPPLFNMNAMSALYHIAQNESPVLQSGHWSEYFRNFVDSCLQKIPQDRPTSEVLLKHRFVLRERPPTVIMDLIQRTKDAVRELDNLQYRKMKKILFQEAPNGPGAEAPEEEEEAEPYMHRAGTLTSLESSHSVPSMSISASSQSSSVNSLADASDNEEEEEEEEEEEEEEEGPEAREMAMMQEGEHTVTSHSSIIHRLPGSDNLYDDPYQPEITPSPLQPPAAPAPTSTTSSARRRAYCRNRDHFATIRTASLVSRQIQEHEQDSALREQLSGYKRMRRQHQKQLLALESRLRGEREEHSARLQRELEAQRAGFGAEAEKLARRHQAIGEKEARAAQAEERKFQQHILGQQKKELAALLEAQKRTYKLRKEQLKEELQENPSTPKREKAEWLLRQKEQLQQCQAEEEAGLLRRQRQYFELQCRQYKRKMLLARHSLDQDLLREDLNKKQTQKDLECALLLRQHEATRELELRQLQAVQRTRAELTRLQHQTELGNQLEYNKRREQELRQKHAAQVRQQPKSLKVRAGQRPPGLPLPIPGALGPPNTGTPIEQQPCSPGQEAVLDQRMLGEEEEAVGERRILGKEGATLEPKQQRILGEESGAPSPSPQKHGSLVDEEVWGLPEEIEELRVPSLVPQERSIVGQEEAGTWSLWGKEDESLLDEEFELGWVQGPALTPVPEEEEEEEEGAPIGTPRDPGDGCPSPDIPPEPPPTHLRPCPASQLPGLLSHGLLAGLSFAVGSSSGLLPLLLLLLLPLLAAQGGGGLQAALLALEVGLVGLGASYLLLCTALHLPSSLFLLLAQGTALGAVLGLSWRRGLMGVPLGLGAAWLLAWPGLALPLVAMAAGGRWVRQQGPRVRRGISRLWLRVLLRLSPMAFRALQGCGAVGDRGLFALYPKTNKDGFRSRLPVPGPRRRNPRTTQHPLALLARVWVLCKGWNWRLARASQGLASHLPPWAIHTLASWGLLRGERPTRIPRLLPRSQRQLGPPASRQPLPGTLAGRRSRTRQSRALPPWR
Procedure: as §1

JNK1 = target: T3, JNK1 (Homo sapiens, UniProt P45983); design: Invitrogen kinase panel, per cent inhibition of kinase activity; settings: 10 µM, inhibitor
T3 construct: gene MAPK8
Procedure: as §1

[1] = target: T4, Angiotensin Coverting Enzyme (Homo sapiens, UniProt P12821); design: Cerep Bioprint off-target panel, enzyme or kinase inhibition; settings: inhibitor
T4 construct: gene ACE
Procedure: as §1

Abl Kinase = target: T5, Abl Kinase (Homo sapiens, UniProt P00519); design: Cerep Bioprint off-target panel, enzyme or kinase inhibition; settings: inhibitor
T5 construct: gene ABL1
Procedure: as §1

Cyclooxygenase 2 = target: T6, Cyclooxygenase 2 (Homo sapiens, UniProt P35354); design: Cerep Bioprint off-target panel, enzyme or kinase inhibition; settings: inhibitor
T6 construct: gene PTGS2
Procedure: as §1

Sequence of MET (P08581 whole entry): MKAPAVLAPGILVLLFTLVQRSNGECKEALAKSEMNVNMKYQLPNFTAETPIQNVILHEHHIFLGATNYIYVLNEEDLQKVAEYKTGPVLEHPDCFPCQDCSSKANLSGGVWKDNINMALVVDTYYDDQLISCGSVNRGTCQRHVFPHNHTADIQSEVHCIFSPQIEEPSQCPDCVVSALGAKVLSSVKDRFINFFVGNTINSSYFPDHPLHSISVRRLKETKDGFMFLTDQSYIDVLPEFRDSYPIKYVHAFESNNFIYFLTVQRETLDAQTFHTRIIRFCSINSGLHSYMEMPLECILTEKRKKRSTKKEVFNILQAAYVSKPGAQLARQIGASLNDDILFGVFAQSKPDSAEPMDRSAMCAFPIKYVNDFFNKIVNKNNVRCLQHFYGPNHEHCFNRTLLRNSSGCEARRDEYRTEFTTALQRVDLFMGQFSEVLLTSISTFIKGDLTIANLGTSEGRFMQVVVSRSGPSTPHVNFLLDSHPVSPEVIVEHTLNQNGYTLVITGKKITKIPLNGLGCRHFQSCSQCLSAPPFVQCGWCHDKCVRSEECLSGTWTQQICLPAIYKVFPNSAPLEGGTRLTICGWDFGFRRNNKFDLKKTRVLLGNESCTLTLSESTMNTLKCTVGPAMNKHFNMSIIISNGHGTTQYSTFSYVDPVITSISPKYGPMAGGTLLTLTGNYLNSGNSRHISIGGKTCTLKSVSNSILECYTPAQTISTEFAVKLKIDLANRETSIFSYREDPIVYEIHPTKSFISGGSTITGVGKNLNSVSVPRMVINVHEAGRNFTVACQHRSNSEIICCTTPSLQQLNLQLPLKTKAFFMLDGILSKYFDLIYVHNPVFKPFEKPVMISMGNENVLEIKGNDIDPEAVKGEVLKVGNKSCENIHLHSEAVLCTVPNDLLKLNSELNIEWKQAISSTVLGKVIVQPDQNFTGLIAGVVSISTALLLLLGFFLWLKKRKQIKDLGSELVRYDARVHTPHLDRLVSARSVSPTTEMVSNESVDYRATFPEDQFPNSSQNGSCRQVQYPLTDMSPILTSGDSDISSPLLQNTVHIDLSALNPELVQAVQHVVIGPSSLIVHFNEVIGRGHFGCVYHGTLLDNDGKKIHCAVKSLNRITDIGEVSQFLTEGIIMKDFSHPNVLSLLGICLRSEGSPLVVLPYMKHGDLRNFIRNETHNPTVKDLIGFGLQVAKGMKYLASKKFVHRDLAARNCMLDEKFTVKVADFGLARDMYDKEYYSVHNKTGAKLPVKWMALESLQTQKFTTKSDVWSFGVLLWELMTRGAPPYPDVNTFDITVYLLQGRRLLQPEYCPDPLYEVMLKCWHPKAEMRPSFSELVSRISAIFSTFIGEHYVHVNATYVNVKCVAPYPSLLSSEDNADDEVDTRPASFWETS
Sequence of CHEK2 (O96017 whole entry): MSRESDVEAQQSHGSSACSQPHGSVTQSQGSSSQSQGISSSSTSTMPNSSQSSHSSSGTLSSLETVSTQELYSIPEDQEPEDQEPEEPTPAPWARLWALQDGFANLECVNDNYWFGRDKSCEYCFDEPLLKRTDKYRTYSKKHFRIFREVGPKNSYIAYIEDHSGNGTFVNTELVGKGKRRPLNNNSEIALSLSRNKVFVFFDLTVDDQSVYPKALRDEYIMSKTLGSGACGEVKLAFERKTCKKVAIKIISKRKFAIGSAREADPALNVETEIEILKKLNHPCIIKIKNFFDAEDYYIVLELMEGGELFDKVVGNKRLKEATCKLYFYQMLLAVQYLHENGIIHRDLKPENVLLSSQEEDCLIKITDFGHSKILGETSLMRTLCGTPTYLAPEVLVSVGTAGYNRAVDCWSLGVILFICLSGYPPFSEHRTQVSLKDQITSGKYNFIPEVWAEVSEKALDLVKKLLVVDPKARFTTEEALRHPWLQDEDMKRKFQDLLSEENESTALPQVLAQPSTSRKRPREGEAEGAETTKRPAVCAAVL
Sequence of TEK (Q02763 whole entry): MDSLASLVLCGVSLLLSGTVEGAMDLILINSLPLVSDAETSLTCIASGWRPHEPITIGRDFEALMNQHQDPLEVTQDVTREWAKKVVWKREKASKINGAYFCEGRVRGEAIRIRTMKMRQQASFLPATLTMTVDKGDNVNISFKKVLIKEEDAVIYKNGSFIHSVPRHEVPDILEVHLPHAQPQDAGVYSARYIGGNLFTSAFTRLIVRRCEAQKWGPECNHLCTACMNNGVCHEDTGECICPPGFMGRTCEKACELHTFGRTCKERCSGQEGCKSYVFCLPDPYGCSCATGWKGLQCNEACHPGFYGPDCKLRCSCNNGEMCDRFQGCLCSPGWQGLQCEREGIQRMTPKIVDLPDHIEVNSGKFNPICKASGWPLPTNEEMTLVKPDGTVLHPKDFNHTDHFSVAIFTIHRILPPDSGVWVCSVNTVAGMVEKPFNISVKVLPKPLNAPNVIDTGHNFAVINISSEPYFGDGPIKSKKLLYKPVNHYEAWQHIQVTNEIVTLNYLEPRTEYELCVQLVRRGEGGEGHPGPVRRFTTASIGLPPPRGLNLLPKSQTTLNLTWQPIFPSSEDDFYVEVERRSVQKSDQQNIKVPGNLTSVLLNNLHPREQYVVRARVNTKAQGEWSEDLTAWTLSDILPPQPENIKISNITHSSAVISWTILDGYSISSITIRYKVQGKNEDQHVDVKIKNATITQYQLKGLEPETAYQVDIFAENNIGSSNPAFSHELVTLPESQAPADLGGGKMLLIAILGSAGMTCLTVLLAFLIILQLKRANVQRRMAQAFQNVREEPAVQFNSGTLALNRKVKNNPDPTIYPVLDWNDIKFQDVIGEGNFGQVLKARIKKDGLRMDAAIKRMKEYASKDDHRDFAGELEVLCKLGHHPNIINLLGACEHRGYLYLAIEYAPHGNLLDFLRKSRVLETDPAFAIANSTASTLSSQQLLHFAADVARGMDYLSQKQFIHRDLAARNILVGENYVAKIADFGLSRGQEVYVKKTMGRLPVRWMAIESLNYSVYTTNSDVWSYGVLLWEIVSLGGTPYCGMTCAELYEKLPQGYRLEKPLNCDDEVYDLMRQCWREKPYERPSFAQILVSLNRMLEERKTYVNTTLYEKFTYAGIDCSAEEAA
T5 sequence (P00519 whole entry): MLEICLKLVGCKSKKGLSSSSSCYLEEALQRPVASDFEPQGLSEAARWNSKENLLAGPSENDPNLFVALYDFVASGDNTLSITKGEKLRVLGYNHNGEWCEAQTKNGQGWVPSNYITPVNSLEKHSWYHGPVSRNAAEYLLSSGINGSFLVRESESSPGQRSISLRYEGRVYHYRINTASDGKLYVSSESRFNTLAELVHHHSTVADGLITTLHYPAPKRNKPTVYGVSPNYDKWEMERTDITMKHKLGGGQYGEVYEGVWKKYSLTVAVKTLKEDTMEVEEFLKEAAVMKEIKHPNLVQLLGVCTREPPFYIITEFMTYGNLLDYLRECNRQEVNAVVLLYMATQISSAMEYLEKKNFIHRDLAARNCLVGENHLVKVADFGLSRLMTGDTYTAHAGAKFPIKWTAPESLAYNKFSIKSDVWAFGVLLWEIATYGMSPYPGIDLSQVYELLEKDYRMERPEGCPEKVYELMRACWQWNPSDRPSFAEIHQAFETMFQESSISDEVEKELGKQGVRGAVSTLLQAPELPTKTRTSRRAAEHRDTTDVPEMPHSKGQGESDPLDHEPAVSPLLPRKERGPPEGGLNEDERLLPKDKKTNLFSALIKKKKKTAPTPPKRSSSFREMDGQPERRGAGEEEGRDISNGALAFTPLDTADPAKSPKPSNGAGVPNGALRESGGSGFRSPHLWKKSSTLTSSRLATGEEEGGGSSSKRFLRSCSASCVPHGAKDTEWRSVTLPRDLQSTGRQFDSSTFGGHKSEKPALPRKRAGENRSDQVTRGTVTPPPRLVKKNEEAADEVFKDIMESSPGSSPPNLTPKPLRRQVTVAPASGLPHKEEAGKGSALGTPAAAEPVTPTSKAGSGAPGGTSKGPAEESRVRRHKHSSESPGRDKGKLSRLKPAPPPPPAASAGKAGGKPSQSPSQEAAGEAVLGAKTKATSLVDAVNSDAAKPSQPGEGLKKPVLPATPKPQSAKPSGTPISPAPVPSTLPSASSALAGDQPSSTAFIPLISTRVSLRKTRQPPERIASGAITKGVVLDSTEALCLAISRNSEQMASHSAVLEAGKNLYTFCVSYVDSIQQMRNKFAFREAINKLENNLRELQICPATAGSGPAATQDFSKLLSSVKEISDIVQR
T6 sequence (P35354 whole entry): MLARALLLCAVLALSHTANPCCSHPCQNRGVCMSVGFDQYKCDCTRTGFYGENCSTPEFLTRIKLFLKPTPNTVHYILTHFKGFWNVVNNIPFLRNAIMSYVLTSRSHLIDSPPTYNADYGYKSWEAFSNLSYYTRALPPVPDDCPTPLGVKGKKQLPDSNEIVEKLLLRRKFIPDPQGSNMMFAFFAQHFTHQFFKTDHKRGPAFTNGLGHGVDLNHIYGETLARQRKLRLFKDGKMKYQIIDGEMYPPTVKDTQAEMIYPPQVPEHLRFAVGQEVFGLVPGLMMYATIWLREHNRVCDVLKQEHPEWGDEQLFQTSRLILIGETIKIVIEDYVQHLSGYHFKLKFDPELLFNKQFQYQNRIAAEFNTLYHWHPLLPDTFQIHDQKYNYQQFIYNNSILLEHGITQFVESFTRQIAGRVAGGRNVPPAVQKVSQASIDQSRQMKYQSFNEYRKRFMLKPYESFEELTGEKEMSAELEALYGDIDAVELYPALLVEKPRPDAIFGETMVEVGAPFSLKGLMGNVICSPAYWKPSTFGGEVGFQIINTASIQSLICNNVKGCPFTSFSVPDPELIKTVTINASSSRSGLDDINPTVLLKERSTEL

O=C(O)c1sc2cc(F)sc2c1Cl [PF-07208254, 3-chloro-5-fluorothieno[3,2-b]thiophene-2-carboxylic acid]
ATP = 1 mM % Inhibition PF-07208254 (TEK): 0.7%
ATP = Km % Inhibition PF-07208254 (TEK): 0.3%
ATP = 10 uM % Inhibition PF-07208254 (PIK3C2B): 3.5%
ATP = 1 mM % Inhibition PF-07208254 (MET): -10.2%
ATP = Km % Inhibition PF-07208254 (MET): -3.1%
ATP = 1 mM % Inhibition PF-07208254 (CHEK2): -0.7%
ATP = Km % Inhibition PF-07208254 (CHEK2): 6.7%
ATP = 1 mM % Inhibition PF-07208254 (IRAK4): -2.1%
ATP = Km % Inhibition PF-07208254 (IRAK4): 6.2%
ATP = Km % Inhibition PF-07208254 (CSK tyrosine Kinase): 2.9%
ATP = 1 mM % Inhibition PF-07208254 (TAOK2): 1.4%
ATP = Km % Inhibition PF-07208254 (TAOK2): -2.5%
ATP = 100 uM % Inhibition PF-07208254 (JNK1): -0.6%
% Inhibition PF-07208254 ([1]; 100 µM): -4%
% Inhibition PF-07208254 (Abl Kinase; 100 µM): 42%
% Inhibition PF-07208254 (Cyclooxygenase 2; 100 µM): 0%

CCC1(COc2ccc(-c3csc(-c4ccccc4C(=O)O)n3)cn2)CC1 [PF-07247685, 2-(4-{6-[(1-ethylcyclopropyl)methoxy]pyridin-3-yl}-1,3-thiazol-2-yl)benzoic acid]
ATP = 1 mM % Inhibition PF-07247685 (TEK): 8.6%
ATP = Km % Inhibition PF-07247685 (TEK): 0.6%
ATP = 10 uM % Inhibition PF-07247685 (PIK3C2B): 2.0%
ATP = 1 mM % Inhibition PF-07247685 (MET): -2.2%
ATP = Km % Inhibition PF-07247685 (MET): -0.3%
ATP = 1 mM % Inhibition PF-07247685 (CHEK2): -0.2%
ATP = Km % Inhibition PF-07247685 (CHEK2): 3.8%
ATP = 1 mM % Inhibition PF-07247685 (IRAK4): 2.9%
ATP = Km % Inhibition PF-07247685 (IRAK4): -0.9%
ATP = Km % Inhibition PF-07247685 (CSK tyrosine Kinase): 4.3%
ATP = 1 mM % Inhibition PF-07247685 (TAOK2): -1.8%
ATP = Km % Inhibition PF-07247685 (TAOK2): -4.7%
ATP = 100 uM % Inhibition PF-07247685 (JNK1): 2.1%
% Inhibition PF-07247685 ([1]; 10 µM): -31%
% Inhibition PF-07247685 (Abl Kinase; 10 µM): 11%
% Inhibition PF-07247685 (Cyclooxygenase 2; 10 µM): 4%

Source: article PMC10412597, “Small molecule branched-chain ketoacid dehydrogenase kinase (BDK) inhibitors with opposing effects on BDK protein levels” (Nature Communications, 2023)
